Laboratory results from ChEMBL document CHEMBL5725638, “3-substituted 5-amino-6H-thiazolo[4,5-d]pyrimidine-2,7-dione compounds for the treatment and prophylaxis of virus infection” (2018).

Molecular target: T1, Toll-like receptor 7 (Homo sapiens, UniProt Q9NYK1)
T1 sequence (Q9NYK1 whole entry): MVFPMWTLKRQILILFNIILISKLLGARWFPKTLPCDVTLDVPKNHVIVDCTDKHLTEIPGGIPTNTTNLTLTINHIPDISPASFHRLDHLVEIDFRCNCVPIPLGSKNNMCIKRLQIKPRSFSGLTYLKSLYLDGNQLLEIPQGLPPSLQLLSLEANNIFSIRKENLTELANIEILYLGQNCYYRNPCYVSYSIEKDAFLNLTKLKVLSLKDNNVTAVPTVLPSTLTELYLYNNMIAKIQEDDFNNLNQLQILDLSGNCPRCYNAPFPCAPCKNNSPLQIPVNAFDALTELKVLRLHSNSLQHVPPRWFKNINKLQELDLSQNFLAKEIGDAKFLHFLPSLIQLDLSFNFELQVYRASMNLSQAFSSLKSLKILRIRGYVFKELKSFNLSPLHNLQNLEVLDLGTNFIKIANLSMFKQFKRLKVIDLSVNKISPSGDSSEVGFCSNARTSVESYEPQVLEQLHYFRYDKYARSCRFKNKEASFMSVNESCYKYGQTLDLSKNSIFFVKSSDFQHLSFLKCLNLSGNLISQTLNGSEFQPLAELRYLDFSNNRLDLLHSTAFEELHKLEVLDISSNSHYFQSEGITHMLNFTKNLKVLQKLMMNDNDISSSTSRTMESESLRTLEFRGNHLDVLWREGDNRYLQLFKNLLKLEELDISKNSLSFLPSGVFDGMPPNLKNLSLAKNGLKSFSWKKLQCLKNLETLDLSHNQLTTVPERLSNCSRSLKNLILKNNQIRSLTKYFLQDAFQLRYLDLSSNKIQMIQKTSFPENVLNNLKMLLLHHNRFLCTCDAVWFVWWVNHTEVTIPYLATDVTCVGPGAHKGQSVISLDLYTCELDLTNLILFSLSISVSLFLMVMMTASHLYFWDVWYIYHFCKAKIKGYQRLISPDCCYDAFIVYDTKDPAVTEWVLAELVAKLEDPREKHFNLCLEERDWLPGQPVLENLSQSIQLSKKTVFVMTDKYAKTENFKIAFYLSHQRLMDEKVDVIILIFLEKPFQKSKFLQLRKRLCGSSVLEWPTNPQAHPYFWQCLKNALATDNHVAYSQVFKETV
Test: HEK293-Blue-hTLR-7 Cells Ass: A stable HEK293-Blue-hTLR-7 cell line was purchased from InvivoGen (Cat.#: hkb-htlr7, San Diego, Calif., USA). These cells were designed for studying the stimulation of human TLR7 by monitoring the activation of NF-κB. A SEAP (secreted embryonic alkaline phosphatase) reporter gene was placed under the control of the IFN-β[…] minimal promoter fused to five NF-κB and AP-1-binding sites. The SEAP was induced by activating NF-κB and AP-1 via stimulating HEK-Blue hTLR7 cells with TLR7 ligands. Therefore the reporter expression was regulated by the NF-κB promoter upon stimulation of human TLR7 for 20 hours. The cell culture supernatant SEAP reporter activity was determined using QUANTI-Blue kit (Cat.#: rep-qb1, Invivogen, San Diego, Calif., USA) at a wavelength of 640 nm, a detection medium that turns purple or blue in the presence of alkaline phosphatase.HEK293-Blue-hTLR7 cells were incubated at a density of 250,000 ~ 450,000 cells/mL in a volume of 180 μL in a 96-well plate in Dulbecco's Modified Eagle's medium (DMEM) containing 4.5 g/L glucose, 50 U/mL penicillin, 50 […], 100 […], 2 mM L-glutamine, 10% (v/v) heat-inactivated fetal bovine serum for 24 h. […]

EC50: 48 µM
Compound: CCC(O)[C@@H]1C[C@@H](OC(C)=O)[C@H](n2c(=O)sc3c(=O)[nH]c(N)nc32)O1 (single isomer, unassigned)
